Laboratory results from patent US20260225889A1, “Spherical nanoparticles for improved composite materials” (Stichting Radboud universitair medisch centrum, priority 2023, published 2026).

Tests used:
[1] = test system: intracellular S. aureus-mCherry; type: cell-based, S. aureus strain RN4220; settings: 24 h; for survival of intracellular S. aureus: systemically delivered: dissolved zinc (300 μM), dissolved vancomycin (5.5 μM), versus 'no treatment'
Procedure: S. aureus strain RN4220 expressing mCherry fluorescent protein (S. aureus-mCherry) was used for in vitro studies. Bacterial inoculums were prepared by culturing S. aureus-mCherry in tryptic soy broth (TSB; BD Difco, Leeuwarden, the Netherlands) supplemented with 10 μg/mL chloramphenicol (Merck) shaking at 120 rpm and 37° C. to the mid logarithmic growth phase. S. aureus-mCherry bacteria were pelleted by centrifugation (3000 g, 10 min), re-suspended in 1 mL of NaCl and 0.25 mL human serum (H1 serum, Bio Whittaker, MD, USA) and incubated for 20 min. The inoculum was adjusted to 10^8 CFU/mL with RPMI based on the optical density value at wavelength 620 (OD620). The human THP-1 macrophages were seeded as described above in 96-well plates at a concentration of 100.000 cells/cm^2. After 48 h, the media was replaced by 1 μL of the bacterial inoculum (bacteria to cell ratio of 1:1) and incubated for 45 min at 37° C. and 5% CO2. Afterwards, the human THP-1 macrophages were washed three times with 50 μL PBS and one time with 200 μL PBS to prevent carry-over of planktonic S. aureus-mCherry. RPMI media supplemented with 5 μg/mL gentamycin (Sigma-Aldrich) was added to control the extracellular growth of S. aureus-mCherry.
The human THP-1 macrophages were allowed to phagocytose S. aureus-mCherry as described above. To investigate the intracellular killing efficiency of the synthesized NPs, RPMI media with 5 μg/ml gentamycin was enriched with 50 μg/ml of synthesized NPs for 24 h. Moreover, to assess the synergistic effect of zinc and vancomycin, a combination of 20 mol % ZnHA and VGelA NPs was added to the co-culture in different concentrations. After 24 h, the human THP-1 macrophages were lysed with 100 μl of 0.025% TritonX-100 to determine the amount of intracellular S. aureus-mCherry number. After lysis, the solution was serial diluted in PBS and spot-plated on agar plates. […] Additionally, the viability of the THP-1 macrophages is assessed using a LIVE/DEAD cell viability assay (Invitrogen, Waltham, MA, USA) as mentioned above. […]

human THP-1 macrophages [2] = experiment: Internalization of labelled nanoparticles in human THP-1 macrophages (confocal overlay); type: cell-based
Procedure: For cell culture experiments, human THP-1 macrophages (American Type Culture Collection, Manassas, USA) were maintained in Roswell Park Memorial Institute (RPMI) 1640 media supplemented with 2 mM Glutamine (GIBCO, New York, NY, USA) and 100/fetal bovine serum (FBS, Sigma-Aldrich). The human THP-1 macrophages were sub-cultured once a week and incubated at 37° C. in a humidified atmosphere containing 5% CO2. The human THP-1 macrophages were passaged by centrifugation when reaching a confluency of 10^6 cells/mL. In the following experiments, cell seeding is performed with media enriched with 50 ng/ml phorbol 12-myristate 13-acetate (PMA; Sigma-Aldrich) to allow for adherence of cells over 48 h.
Human THP-1 macrophages were cultured as described above and seeded with a density of 200.000 cells/cm^2 in an 8-well μ-slide (ibidi, Gräfelfing, Germany) for 48 h. Labeled NPs were diluted in RPMI cell culture medium to reach a final concentration of 50 μg/mL. Afterwards 200 μL particle suspension was added to the human THP-1 macrophages. […] The image analysis software Fiji was used for the reconstruction of images, and the plugin “co-localization finder” was used to visualize the overlaying signal in white and quantify the fluorescence overlay of different channels.

human THP-1 macrophages [3] = experiment: LIVE/DEAD cell viability assay of THP-1 macrophages with phagocytosed S. aureus; type: cell-based; settings: systemic zinc 75 μM, 24 h
Procedure: Additionally, a LIVE/DEAD cell viability assay (Invitrogen, Waltham, MA, USA) was used according to the manufacturer's instructions to visualize the cells after 24 h of phagocytosis. In brief, 100 μL of 4 μM Ethidium homodimer 1 and 2 μM calcein AM solution in PBS was added to the human THP-1 macrophages and incubated for 30 min before visualization using a Leica SP8-X DLS Lightsheet microscope (Leica Microsystems, Wetzlar, Germany). Human THP-1 macrophages without phagocytosed S. aureus-mCherry served as negative control. The amount of living cells were quantified by counting using three LIVE/DEAD images and compared between macrophages with and without phagocytosed S. aureus.
The human THP-1 macrophages were allowed to phagocytose S. aureus-mCherry as described above. To investigate the intracellular killing efficiency of the synthesized NPs, RPMI media with 5 μg/ml gentamycin was enriched with 50 μg/ml of synthesized NPs for 24 h. Moreover, to assess the synergistic effect of zinc and vancomycin, a combination of 20 mol % ZnHA and VGelA NPs was added to the co-culture in different concentrations. […] Additionally, the viability of the THP-1 macrophages is assessed using a LIVE/DEAD cell viability assay (Invitrogen, Waltham, MA, USA) as mentioned above. […]

Compound	survival of intracellular S. aureus [1]	internalization by human THP-1 macrophages (human THP-1 macrophages [2]; dissolved, no NPs)	Overlay (%) (human THP-1 macrophages [2]; fluorescently labelled NPs 50 μg/mL in THP-1 macrophages, confocal co-localization)	effect on intracellular S. aureus survival ([1]; systemic zinc 75 μM)	amount of alive cells (LIVE/DEAD images) (human THP-1 macrophages [3])
CN[C@H](CC(C)C)C(=O)N[C@H]1C(=O)N[C@@H](CC(N)=O)C(=O)N[C@H]2C(=O)N[C@H]3C(=O)N[C@H](C(=O)N[C@H](C(=O)O)c4cc(O)cc(O)c4-c4cc3ccc4O)[C@H](O)c3ccc(c(Cl)c3)Oc3cc2cc(c3O[C@@H]2O[C@H](CO)[C@@H](O)[C@H](O)[C@H]2O[C@H]2C[C@](C)(N)[C@H](O)[C@H](C)O2)Oc2ccc(cc2Cl)[C@H]1O [vancomycin]	did not cause a significant reduction	–	–	–	–
FITC-vancomycin	–	inability	0%	–	–
[Zn] [zinc]	did not cause a significant reduction	–	–	reduction of intracellular S. aureus survival	visually decreased the amount of alive cells
